In patent US20240025883A1, “PYRIMIDIN-2-YL SULFONAMIDE DERIVATIVES” (Hoffmann-La Roche Inc., priority 2021, published 2024):

Target: human GPR17 short isoform (Homo sapiens (Human), UniProt Q13304)
Test: GPR17 cAMP assay (hGPR17 cAMP, antagonist mode against EC80 of MDL29,951)
Type: cell-based
Details: CHO-K1 cells stably expressing human GPR17 short isoform; EC80 of agonist MDL29,951; forskolin 15 μM
Summary of the method: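 CHO-K1 cells stably expressing untagged human GPR17 short isoform, 10,000/well in HBSS/10 mM HEPES/0.1% BSA pH 7.4. Compounds added with EC80 MDL29,951 and 0.5 mM IBMX, then 15 μM forskolin 5 min later, 30 min at room temperature; cAMP by TR-FRET, normalized to reference antagonist, sigmoidal fit.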

human GPR17 short isoform, sequence (Q13304 29-367): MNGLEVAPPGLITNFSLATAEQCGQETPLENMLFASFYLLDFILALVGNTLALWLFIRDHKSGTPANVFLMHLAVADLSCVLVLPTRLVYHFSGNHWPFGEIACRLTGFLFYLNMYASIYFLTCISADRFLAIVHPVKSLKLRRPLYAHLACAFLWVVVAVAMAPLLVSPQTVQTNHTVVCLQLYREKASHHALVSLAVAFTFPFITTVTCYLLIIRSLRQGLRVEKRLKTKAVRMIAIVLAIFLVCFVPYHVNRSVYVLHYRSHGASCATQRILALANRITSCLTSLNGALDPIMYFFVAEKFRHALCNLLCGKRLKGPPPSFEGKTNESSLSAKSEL

| IC50 [nM] | Compound |
| --- | --- |
| 45 | COc1nc(NS(=O)(=O)c2c[nH]c3c(OC4CC4)c(Cl)ccc23)ncc1CCC(F)F [Example 212, 6-chloro-7-(cyclopropoxy)-N-[5-(3,3-difluoropropyl)-4-methoxy-pyrimidin-2-yl]-1H-indole-3-sulfonamide] |
| 405 | COc1nc(NS(=O)(=O)c2c[nH]c3c2ccc2scnc23)ncc1CC(F)F [Example 290, N-[5-(2,2-Difluoroethyl)-4-Methoxy-Pyrimidin-2-Yl]-8H-Pyrrolo[2,3-e][1.3]Benzothiazole-6-Sulfonamide] |
| 20800 | COc1nc(NS(=O)(=O)c2c[nH]c3cc(Cl)ccc23)nc(C2CCOCC2)c1Br [Example 138, N-(5-bromo-4-methoxy-6-tetrahydropyran-4-yl-pyrimidin-2-yl)-6-chloro-1H-indole-3-sulfonamide] |
| 25 | COc1nc(NS(=O)(=O)c2c[nH]c3nc(Br)ccc23)nc(OC)c1OC(F)(F)CF [Example 110, 6-bromo-N-[4,6-dimethoxy-5-(1,1,2-trifluoroethoxy)pyrimidin-2-yl]-1H-pyrrolo[2,3-b]pyridine-3-sulfonamide] |
| 50 | COc1nc(NS(=O)(=O)c2c[nH]c3c(Cl)c(Cl)ccc23)ncc1OCCF [Example 3, 6,7-dichloro-N-[5-(2-fluoroethoxy)-4-methoxy-pyrimidin-2-yl]-1H-indole-3-sulfonamide] |
| 7 | COc1nc(NS(=O)(=O)c2c[nH]c3cc(Cl)ccc23)nc(OC)c1CCCF [Example 61, 6-chloro-N-[5-(3-fluoropropyl)-4,6-dimethoxy-pyrimidin-2-yl]-1H-indole-3-sulfonamide] |
| 9 | COc1nc(NS(=O)(=O)c2c[nH]c3cc(Cl)ccc23)nc(OC)c1CCC#N [Example 68, 6-chloro-N-[5-(2-cyanoethyl)-4,6-dimethoxy-pyrimidin-2-yl]-1H-indole-3-sulfonamide] |
| 18 | COc1nc(NS(=O)(=O)c2c[nH]c3c(OC)c(Cl)ccc23)ncc1CCC(F)F [Example 187, 6-chloro-N-[5-(3,3-difluoropropyl)-4-methoxy-pyrimidin-2-yl]-7-methoxy-1H-indole-3-sulfonamide] |
| 21 | COc1nc(NS(=O)(=O)c2c[nH]c3nc(Br)ccc23)nc(OC)c1CCC#N [Example 113, 6-bromo-N-[5-(2-cyanoethyl)-4,6-dimethoxy-pyrimidin-2-yl]-1H-pyrrolo[2,3-b]pyridine-3-sulfonamide] |
| 248 | COc1nc(NS(=O)(=O)c2csc3c(F)c(Cl)ccc23)ncc1CC(F)F [Example 162, 6-chloro-N-[5-(2,2-difluoroethyl)-4-methoxy-pyrimidin-2-yl]-7-fluoro-benzothiophene-3-sulfonamide] |
| 11 | COc1nc(NS(=O)(=O)c2c[nH]c3cc(C(F)F)ccc23)nc(OC)c1CCC#N [Example 103, N-[5-(2-cyanoethyl)-4,6-dimethoxy-pyrimidin-2-yl]-6-(difluoromethyl)-1H-indole-3-sulfonamide] |
| 36 | COc1nc(NS(=O)(=O)c2c[nH]c3c(OCF)c(Cl)ccc23)ncc1CC(F)F [Example 198, 6-chloro-N-[5-(2,2-difluoroethyl)-4-methoxy-pyrimidin-2-yl]-7-(fluoromethoxy)-1H-indole-3-sulfonamide] |
| 256 | COc1nc(NS(=O)(=O)c2c[nH]c3cc(Cl)ccc23)ncc1C#N [Example 23, 6-chloro-N-(5-cyano-4-methoxy-pyrimidin-2-yl)-1H-indole-3-sulfonamide] |
| 433 | COc1nc(NS(=O)(=O)c2c[nH]c3c(CO)c(C)ccc23)ncc1CC(F)F [Example 292, N-[5-(2,2-Difluoroethyl)-4-Methoxy-Pyrimidin-2-Yl]-6-Methyl-7-Methylol-1H-Indole-3-Sulfonamide] |
| 16800 | COc1nc(NS(=O)(=O)c2c[nH]c3cc(Cl)ccc23)ncc1CCC1COC1 [Example 181, 6-chloro-N-[4-methoxy-5-[2-(oxetan-3-yl)ethyl]pyrimidin-2-yl]-1H-indole-3-sulfonamide] |
